In this experiment the test system is C. elegance. In words: Measurement of dauer formation effect activity. The experiment is classed as in vivo, Caenorhabditis elegance. Here is the method:
Next, dauer formation effect of the compound of 6R-(3,6-dideoxy-L-arabino-hexopyranosyloxy)heptanoic acid (I), which is synthesized according to the present process of the invention, is measured using C. elegance.
That is, the dauer formation effect of the synthetic pheromone is measured using C. elegance tinder different feed, temperature and crowd density conditions from each other.
Although it should be passed from an L2 first half step or L3 second half step to an adult step in a condition where the feed and temperature (15-25° C.) are proper and the crowd density is low, when the synthetic pheromone is mixed, the step goes to dauer larva stage.
For comparison, seven C. elegances in the dauer larva and one C. elegance in the adult step are comparatively observed. […] In Picture 1, it can be noted that the C. elegance is not grown without moving.
To identify the dauer formation effect of the inventive pheromone, an activity is measured after the pheromone compound is supplied to S. basal agar culture medium without peptone (Vowels and Thomas, Genetics 130: 105-123, 1992).
The dauer formation effect activity of the inventive compound with respect to C. elegance is shown as Table 3.

The source of these data is US7576225B2, “6R-(3,6-dideoxy-L-arabino-hexopyranosyloxy) heptanoic acid, preparation process for the same and dauer effect thereof” (KDR Biotech. Co. Ltd., priority 2004, dated 2009).

As for `C[C@H](CCCCC(=O)O)O[C@@H]1O[C@@H](C)[C@H](O)C[C@H]1O` [synthetic pheromone, 6R-(3,6-dideoxy-L-arabino-hexopyranosyloxy)heptanoic acid], the dauer formation effect (320 μg/plate of the synthetic pheromone, C. elegance) is reported as 100%. For the same molecule, the “dauer formation effect (observation of larvae)” value (synthetic pheromone mixed in, proper feed and temperature (15-25° C.), low crowd density) is listed as “greatly affects the dauer formation effect”.
